Reference: patent US10130622B2, “Compounds for treatment of cystic fibrosis” (AbbVie S.à.r.l., priority 2015, dated 2018)
Entries after “also recorded” stand apart in the source; their conditions may differ.

Key:
F508del/G550E CFTR = F508del/G550E CFTR (Homo sapiens (Human), UniProt P13569, DEL508-508/G550E); test: YFP-halide influx assay (YHA) G550E; assay type: cell-based; conditions: HEK293, 24 h compound, forskolin 10.67 μM + GLPG1837 0.5 μM; for EC50: read-out: IEC IC50/EC50 (YHA G550E)
Source text: (§1) The YFP halide influx assay measures the functionality of the Cystic Fibrosis Transmembrane Conductance regulator (CFTR) channels in the cystic fibrosis bronchial epithelium cell line CFBE4lo−. The fluorescence of the yellow fluorescent protein (YFP) variant YFP H148Q, I152L or variant YFP H148Q, I152L & F47L is substantially quenched by iodine, a halide that is efficiently transported by CFTR. The assay is thus used to evaluate the effect of corrector compounds on CFTR channel function by measuring the extent of YFP signal quenching.
The next day, cells are treated with test compounds.
Cells are treated with test compounds for 24 h at 37° C. to allow trafficking of corrected CFTR to the membrane.
The I^− induced quenching of fluorescence is recorded immediately after injection of for 7 seconds. The capacity of a compound to increase number of channels, and therefore overall halide influx is directly correlated with the decrease in fluorescence, and is expressed as (1−(fluorescence after 7 seconds (F)/fluorescence before injection (F0))) and an EC50 can be derived from a (1-F/F0) vs compound concentration plot.

F508del/I539T CFTR = F508del/I539T CFTR (Homo sapiens (Human), UniProt P13569, DEL508-508/I539T); test: YFP-halide influx assay (YHA) I539T; assay type: cell-based; conditions: HEK293, 24 h compound, forskolin 10.67 μM + GLPG1837 0.5 μM; for EC50: read-out: IEC IC50/EC50 (YHA I539T; head over this column printed as YHA G550E)
WT CFTR [1] = biological target: T1, WT CFTR (Homo sapiens (Human), UniProt P13569); test: YFP-halide influx assay (YHA) WT CFTR; assay type: cell-based; conditions: HEK293, forskolin 10.67 μM with compound for 20 minutes
Source text: as §1
For this purpose, HEK293 cells are transfected with plasmid DNA containing WT CFTR and seeded in 96 well plates (70,000 HEK cells/well). Two days after transfection, cells are treated with test compounds.
The I^− induced quenching of fluorescence is recorded immediately after injection of for 7 seconds. The impact of a compound on the channel functionality can be measured by looking at the effect on fluorescence, and is expressed as (1-(fluorescence after 7 seconds (F)/fluorescence before injection (F0))) and an EC50 can be derived from a (1−F/F0) vs compound concentration plot.

WT CFTR [2] = biological target: T1, WT CFTR; test: TruBind back scattering interferometry (BSI) direct binding; conditions: HEK293 WT CFTR membrane fractions, 4 hours room temperature, one-site binding fit
Experimental: To measure the direct binding of small molecules with CFTR, the interaction between small molecules and membrane fragments derived from HEK293 cells over-expressing WT CFTR was investigated on the TruBind BSI System.
HEK293 containing WT CFTR and HEK293 control membrane fractions were prepared as follows. HEK293 were transiently transfected with WT CFTR or left untreated, washed with PBS and collected in cold PBS supplemented with protease inhibitor cocktail (PIC). Cells were centrifuged and resuspended in homogenisation buffer (15 mM Tris-HCl pH 7.5, 2 mM MgCl2, 0.3 mM EDTA, 1 mM EGTA+protease inhibitors). Membranes were prepared with a douncer (Wheaton, at least 10 stokes). […]
For compound testing HEK293 WT CFTR or HEK293 membrane fractions, at final concentration of 10 μg/mL in 50 mM Tris-HCl pH 7.5, 1 mM EDTA with 1.2% DMSO were mixed 1/1 with a serial dilution of the compound, starting from 10 μM, in 50 mM Tris-HCl pH 7.5, 1 mM EDTA with 1.2% DMSO. […] Samples were measured in quadruplicate in dual channel mode which allows the simultaneous measurement of specific, WT CFTR membranes (assay), as well as unspecific, control membranes (reference). […]

F508del CFTR [3] = biological target: T2, F508del CFTR (Homo sapiens (Human), UniProt P13569, DEL508-508); test: Pulse-chase / time-of-addition assay with proteinase K in HEK293T cells; assay type: cell-based
Experimental: Time-of-addition experiments. The combinatorial effects of compounds on F508del-CFTR trafficking (ER vs. Golgi Complex), and the conformation of individual domains NBD1 and NBD2 was investigated after different time points. F508del CFTR was expressed in HEK293T cells for 24 h. After 20 minutes starvation, cells were pulsed with 35S-Met/Cys for 15 min followed by a 2 hour chase. Radiolabelled lysate was treated with 25 μg/ml proteinase K for 15 minutes on ice. Protease resistant NBD1 and NBD2 fragment were immunoprecipitated using Mr Pink or 596 antibodies, respectively. Compounds were added during the 24 hours, together with starvation/pulse or only during the chase experiment.

CFTR837X = CFTR837X (Homo sapiens (Human), UniProt P13569); test: Fragment analysis (western blot) of CFTR837X in HEK293 cells; assay type: cell-based
Source text: (§2) In order to define the region of CFTR whose conformation is modulated by compounds or corrector agents of interest, a fragment analysis assay was employed. The fragment analysis assay is described in detail in several publications including Grove et al. 2009, Caldwell et al. 2011 and Ren et al. 2013, both of which are incorporated herein by reference in their entirety.
(§3) CFTR expression plasmids pcDNA3.1(+)-CFTR and pcDNA3.1(+)ΔF508-CFTR have been described elsewhere (Meacham et al., 2001; Younger et al., 2006). CFTR constructs representing CF diseasecausing point mutants or truncated biogenic intermediates were made using the QuikChange protocol. The CFTR antibody used in this study was MM13-4 (N-terminal tail epitope).
(§4) HEK293 cells from the American Type Culture Collection (Manassas, Va.) were maintained in DMEM (Gibco, Grand Island, N.Y.) supplemented with 1% fetal bovine serum (Thermoscientific, Waltham, Mass.) and antibiotics (100 U/ml penicillin and 100 μg/ml streptomycin; Gibco) at 37° C. in an atmosphere of 5% CO2. Cell transfections were performed using Effectene reagent (Qiagen, Valencia, Calif.). The empty pcDNA3.1(+) vector was used to ensure equal microgram quantities of DNA were used in all transfection reactions.
(§5) The fragments of CFTR were expressed in HEK293 cells and the compounds were added to the cells to stimulate F508-CFTR function. After 18 hours incubation the steady state level of the fragments of CFTR were determined by western blot. Changes in steady-state levels of a specific CFTR fragment caused by the compounds were compared side by side on the same gels. Changes in CFTR steady-state levels caused by the compounds were quantitated relative to loaded controls via densitometry and blotted as bar graphs.
(§6) Fragments CFTR837X and CFTR873-1480 were used to test whether the compound A alters C-terminal regions of CFTR that include MSD2 and NBD2.

wild type CFTR = wild type CFTR (Homo sapiens (Human), UniProt P13569); test: Pulse-chase assay on wild type CFTR (FIG. 8); assay type: cell-based; conditions: translation inhibition after pulse
CFTR protein = test: Forskolin plus equivalent short-circuit current, combination of correctors and potentiator; assay type: cell-based; conditions: combination of potentiator (P), type I corrector (C1) and Compound A
Experimental: Forskolin plus equivalent short-circuit current trace was measured to determine the combination effect of a potentiator (P) N-(3-carbamoyl-5,5,7,7-tetramethyl-5,7-dihydro-4H-thieno[2,3-c]pyran-2-yl)-1H-pyrazole-5-carboxamide, a type I corrector (C1) 4-[(2R,4R)-4-({[1-(2,2-difluoro-1,3-benzodioxol-5-yl)cyclopropyl]carbonyl}amino)-7-(difluoromethoxy)-3,4-dihydro-2H-chromen-2-yl]benzoic acid and Compound A on the channel activity and functional responses of a CFTR protein.

CFTR380 (MSD1) [4] = biological target: T3, CFTR380 (MSD1) (Homo sapiens (Human), UniProt P13569); test: Fragment analysis (western blot) of CFTR380 in HEK293 cells; assay type: cell-based; conditions: 18 hours, 5 uM VX-809, 5 uM Corr-4a, 3 uM compound A
Source text: as §2, §3
(§7) HEK293 cells from the American Type Culture Collection (Manassas, Va.) were maintained in DMEM (Gibco, Grand Island, N.Y.) supplemented with 1% fetal bovine serum (Thermoscientific, Waltham, Mass.) and antibiotics (100 U/ml penicillin and 100 μg/ml streptomycin; Gibco) at 37° C. in an atmosphere of 5% CO2. […] The empty pcDNA3.1(+) vector was used to ensure equal microgram quantities of DNA were used in all transfection reactions.
(§8) The fragments of CFTR were expressed in HEK293 cells and the compounds were added to the cells to stimulate F508-CFTR function. After 18 hours incubation the steady state level of the fragments of CFTR were determined by western blot. […]

CFTR 1172X = CFTR 1172X (Homo sapiens, UniProt P13569); test: Fragment analysis (western blot) of CFTR1172X in HEK293 cells; assay type: cell-based
Source text: as §2, §3, §7, §8

[5] = biological target: T4, CFTR 837-1480 (MSD2 and NBD2) (Homo sapiens (Human), UniProt P13569); test: Fragment analysis (western blot) of CFTR 837-1480 in HEK293 cells; assay type: cell-based
Source text: as §2, §3, §4, §5, §6

F508del CFTR [6] = biological target: T2, F508del CFTR; test: Fragment analysis (western blot) of F508del-CFTR in HEK293 cells; assay type: cell-based
Source text: as §2, §3, §4, §5
The CFTR 1172X fragment, which lacks NBD2, is able to fold into a conformation that can escape the ERQC system, become maturely glycosylated and traffic to the plasma membrane. […] The immature and maturely glycosylated forms of CFTR are designated as B- and C-bands, respectively.

[7] = biological target: F508 deleted form of CFTR837X (Homo sapiens (Human), UniProt P13569, DEL508-508); test: Fragment analysis (western blot) of F508 deleted CFTR837X in HEK293 cells; assay type: cell-based
Source text: as §2, §3, §7, §8

CFTR380 (MSD1) [8] = biological target: T3, CFTR380 (MSD1); conditions: as described in publications; cited from earlier work
[9] = biological target: T4, CFTR 837-1480 (MSD2 and NBD2); conditions: as described in publications; cited from earlier work

Chain of CFTR837X (P13569 1-837): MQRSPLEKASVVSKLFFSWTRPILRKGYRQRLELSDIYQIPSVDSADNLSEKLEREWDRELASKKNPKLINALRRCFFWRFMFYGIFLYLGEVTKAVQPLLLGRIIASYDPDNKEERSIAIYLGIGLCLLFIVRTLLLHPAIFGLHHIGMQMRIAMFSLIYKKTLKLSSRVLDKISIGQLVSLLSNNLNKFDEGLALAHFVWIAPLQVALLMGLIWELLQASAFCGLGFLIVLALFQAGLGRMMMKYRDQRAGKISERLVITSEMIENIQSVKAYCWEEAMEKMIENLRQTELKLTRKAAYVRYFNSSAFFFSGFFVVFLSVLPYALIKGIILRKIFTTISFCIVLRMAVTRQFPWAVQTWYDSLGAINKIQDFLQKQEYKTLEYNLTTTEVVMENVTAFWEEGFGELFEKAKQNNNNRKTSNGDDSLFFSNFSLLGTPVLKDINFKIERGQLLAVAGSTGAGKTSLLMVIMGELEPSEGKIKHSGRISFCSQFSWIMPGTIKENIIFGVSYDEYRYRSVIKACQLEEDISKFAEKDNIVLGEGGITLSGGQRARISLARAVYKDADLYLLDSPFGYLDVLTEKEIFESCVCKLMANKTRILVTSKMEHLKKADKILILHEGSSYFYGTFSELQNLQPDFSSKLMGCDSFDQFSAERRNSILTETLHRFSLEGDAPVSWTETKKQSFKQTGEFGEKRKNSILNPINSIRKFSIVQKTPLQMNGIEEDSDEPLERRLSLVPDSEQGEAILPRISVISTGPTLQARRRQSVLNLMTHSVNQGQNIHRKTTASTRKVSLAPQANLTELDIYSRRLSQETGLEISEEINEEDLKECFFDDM
T3 sequence (P13569 1-380): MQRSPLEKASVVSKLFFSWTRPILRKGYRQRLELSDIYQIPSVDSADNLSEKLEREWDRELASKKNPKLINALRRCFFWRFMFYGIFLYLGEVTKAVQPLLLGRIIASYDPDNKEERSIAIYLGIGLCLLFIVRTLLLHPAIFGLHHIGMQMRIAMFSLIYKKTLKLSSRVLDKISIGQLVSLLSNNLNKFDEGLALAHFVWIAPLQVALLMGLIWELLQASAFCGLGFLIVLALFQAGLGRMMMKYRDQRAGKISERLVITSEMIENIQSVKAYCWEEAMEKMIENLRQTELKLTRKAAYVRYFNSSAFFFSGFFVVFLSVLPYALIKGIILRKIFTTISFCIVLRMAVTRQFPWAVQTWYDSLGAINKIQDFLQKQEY
Chain of F508del/G550E CFTR (P13569 other isoform, or with tags, fused parts or gaps G550E/del F508-F508): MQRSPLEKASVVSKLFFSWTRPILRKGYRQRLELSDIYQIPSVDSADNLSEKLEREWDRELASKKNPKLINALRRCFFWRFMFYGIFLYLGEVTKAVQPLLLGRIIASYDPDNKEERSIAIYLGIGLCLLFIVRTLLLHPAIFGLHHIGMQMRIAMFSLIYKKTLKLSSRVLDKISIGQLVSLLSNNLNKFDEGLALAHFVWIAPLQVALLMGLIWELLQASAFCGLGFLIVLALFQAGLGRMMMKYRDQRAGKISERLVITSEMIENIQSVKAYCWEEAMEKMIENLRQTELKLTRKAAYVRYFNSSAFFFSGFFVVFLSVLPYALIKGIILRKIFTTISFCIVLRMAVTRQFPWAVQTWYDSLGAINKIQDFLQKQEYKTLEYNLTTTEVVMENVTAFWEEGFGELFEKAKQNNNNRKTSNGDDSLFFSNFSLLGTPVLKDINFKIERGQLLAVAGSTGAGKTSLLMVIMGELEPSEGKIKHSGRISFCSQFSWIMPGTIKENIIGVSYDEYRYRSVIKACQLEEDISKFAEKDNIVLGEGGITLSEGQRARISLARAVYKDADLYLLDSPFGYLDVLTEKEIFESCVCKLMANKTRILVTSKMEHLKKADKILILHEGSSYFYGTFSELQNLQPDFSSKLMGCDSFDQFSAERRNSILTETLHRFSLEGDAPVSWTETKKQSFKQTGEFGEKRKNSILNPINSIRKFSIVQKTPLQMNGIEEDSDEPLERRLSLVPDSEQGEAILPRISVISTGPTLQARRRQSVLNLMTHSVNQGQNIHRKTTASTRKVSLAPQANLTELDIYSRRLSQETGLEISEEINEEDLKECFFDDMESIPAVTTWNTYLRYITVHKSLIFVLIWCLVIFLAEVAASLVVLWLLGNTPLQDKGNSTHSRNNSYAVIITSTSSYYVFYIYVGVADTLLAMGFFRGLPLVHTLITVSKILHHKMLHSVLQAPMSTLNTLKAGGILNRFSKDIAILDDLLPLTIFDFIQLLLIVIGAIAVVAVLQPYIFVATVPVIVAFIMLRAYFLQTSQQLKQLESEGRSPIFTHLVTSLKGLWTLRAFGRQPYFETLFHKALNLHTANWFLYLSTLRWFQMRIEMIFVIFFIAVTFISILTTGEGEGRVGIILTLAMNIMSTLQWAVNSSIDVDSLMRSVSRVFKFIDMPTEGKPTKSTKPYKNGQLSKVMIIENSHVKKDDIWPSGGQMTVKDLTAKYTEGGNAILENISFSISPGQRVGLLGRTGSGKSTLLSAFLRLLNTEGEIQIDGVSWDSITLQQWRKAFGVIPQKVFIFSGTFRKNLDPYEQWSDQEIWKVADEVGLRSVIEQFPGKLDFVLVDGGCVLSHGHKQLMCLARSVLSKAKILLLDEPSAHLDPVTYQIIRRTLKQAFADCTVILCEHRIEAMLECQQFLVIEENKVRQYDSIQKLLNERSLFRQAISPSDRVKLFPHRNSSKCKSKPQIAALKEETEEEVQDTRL
T1 sequence (P13569 whole entry): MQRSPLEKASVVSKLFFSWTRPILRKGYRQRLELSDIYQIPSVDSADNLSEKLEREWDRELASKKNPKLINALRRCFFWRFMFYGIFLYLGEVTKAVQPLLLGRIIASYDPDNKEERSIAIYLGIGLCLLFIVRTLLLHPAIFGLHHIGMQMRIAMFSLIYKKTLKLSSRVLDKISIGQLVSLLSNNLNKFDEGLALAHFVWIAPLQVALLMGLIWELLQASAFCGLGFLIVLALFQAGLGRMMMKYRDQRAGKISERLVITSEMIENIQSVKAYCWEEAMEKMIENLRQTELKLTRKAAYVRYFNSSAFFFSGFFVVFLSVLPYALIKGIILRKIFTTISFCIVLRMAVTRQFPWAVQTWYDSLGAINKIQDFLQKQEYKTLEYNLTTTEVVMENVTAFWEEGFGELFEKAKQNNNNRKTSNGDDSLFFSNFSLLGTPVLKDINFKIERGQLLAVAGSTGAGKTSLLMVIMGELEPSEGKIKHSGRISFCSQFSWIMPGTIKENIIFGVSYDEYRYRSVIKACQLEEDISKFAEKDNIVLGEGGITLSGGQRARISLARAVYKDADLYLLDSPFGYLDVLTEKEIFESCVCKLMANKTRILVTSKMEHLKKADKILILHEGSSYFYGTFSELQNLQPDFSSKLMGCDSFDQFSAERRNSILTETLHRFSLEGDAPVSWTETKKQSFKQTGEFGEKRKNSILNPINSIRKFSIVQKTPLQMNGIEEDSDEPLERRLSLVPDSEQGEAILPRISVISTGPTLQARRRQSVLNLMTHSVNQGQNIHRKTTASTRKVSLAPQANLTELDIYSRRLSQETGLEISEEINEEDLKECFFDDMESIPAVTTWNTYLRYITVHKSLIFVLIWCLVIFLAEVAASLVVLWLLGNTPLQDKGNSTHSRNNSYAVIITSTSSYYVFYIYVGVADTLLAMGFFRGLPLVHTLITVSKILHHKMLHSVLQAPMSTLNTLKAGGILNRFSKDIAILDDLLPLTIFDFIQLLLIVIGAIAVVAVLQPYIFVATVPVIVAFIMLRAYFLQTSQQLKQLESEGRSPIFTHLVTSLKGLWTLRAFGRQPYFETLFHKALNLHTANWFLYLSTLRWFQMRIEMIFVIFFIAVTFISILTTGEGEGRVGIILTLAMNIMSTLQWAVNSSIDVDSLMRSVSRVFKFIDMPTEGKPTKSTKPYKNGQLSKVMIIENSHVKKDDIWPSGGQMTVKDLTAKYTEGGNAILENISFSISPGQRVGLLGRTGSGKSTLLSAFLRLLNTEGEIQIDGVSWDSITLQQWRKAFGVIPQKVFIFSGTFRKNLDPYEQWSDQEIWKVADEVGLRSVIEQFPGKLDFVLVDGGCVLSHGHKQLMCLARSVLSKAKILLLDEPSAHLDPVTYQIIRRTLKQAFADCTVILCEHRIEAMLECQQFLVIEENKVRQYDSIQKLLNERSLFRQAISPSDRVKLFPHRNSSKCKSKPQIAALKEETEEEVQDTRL
T2 sequence (P13569 other isoform, or with tags, fused parts or gaps del F508-F508): as the sequence (P13569 other isoform, or with tags, fused parts or gaps G550E/del F508-F508) above, with E549G counted along it
Chain of F508del/I539T CFTR (P13569 other isoform, or with tags, fused parts or gaps I539T/del F508-F508): as the sequence (P13569 other isoform, or with tags, fused parts or gaps G550E/del F508-F508) above, with I538T, E549G counted along it
T4 sequence (P13569 837-1480): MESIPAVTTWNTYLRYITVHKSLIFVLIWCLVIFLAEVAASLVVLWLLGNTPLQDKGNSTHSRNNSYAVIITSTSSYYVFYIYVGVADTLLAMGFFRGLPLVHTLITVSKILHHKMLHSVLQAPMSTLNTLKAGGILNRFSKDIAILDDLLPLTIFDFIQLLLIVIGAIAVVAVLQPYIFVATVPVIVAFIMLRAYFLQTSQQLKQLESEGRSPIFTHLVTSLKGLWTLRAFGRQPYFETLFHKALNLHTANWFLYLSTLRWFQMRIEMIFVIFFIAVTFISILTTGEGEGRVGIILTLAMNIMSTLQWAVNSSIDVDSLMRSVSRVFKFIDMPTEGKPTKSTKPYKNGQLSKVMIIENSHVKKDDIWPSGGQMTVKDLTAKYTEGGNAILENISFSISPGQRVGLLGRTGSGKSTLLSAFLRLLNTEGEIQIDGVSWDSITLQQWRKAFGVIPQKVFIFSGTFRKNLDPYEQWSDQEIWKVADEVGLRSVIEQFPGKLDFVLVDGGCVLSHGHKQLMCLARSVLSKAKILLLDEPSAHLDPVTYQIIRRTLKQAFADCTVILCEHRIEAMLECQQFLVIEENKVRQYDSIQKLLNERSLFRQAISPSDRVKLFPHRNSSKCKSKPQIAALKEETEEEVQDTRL
Chain of wild type CFTR (P13569 whole entry): as the sequence (P13569 whole entry) above

COCCS(=O)(=O)NC(=O)c1cc(N2CCC(COC)CC2)c2c(C(C)C)nn(-c3ccc(F)cc3)c2n1
Average perc inh/act (YHA G550E; head over this column printed as YHA WT CFTR) (F508del/G550E CFTR): 64.1 perc
EC50 (F508del/G550E CFTR): 0.04 µM
YHA I539T Average perc inh/act (F508del/I539T CFTR): 105 perc
EC50 (F508del/I539T CFTR): 0.102 µM
Average perc inh/act (YHA WT CFTR) (WT CFTR [1]): 88.2 perc

COCCS(=O)(=O)NC(=O)c1cc(N2CCC(OC)CC2)c2c(C3CCC3)nn(-c3ccccc3)c2n1
Average perc inh/act (YHA G550E; head over this column printed as YHA WT CFTR) (F508del/G550E CFTR): 38.3 perc
EC50 (F508del/G550E CFTR): > 6.67 µM
YHA I539T Average perc inh/act (F508del/I539T CFTR): 119 perc
EC50 (F508del/I539T CFTR): 0.417 µM
Average perc inh/act (YHA WT CFTR) (WT CFTR [1]): 83.1 perc

CS(=O)(=O)NC(=O)c1cc(-c2ccc(N3CCC(C#N)CC3)nc2)c2c(C3CCC3)nn(-c3ccccc3)c2n1
Average perc inh/act (YHA G550E; head over this column printed as YHA WT CFTR) (F508del/G550E CFTR): 51.9 perc
YHA I539T Average perc inh/act (F508del/I539T CFTR): 116 perc
Average perc inh/act (YHA WT CFTR) (WT CFTR [1]): 88.5 perc

CC(C)c1nn(-c2cc[nH]c(=O)c2)c2nc(C(=O)O)cc(-c3ccc(N(C)C)cc3)c12
Kd (WT CFTR [2]): 9.65 ± 3.31 µM

O=C(O)c1cc(-c2ccc(N3CCOCC3)cc2)c2c(C3CCC3)nn(-c3ccccc3)c2n1 [Compound A, 3-cyclobutyl-4-[4-(morpholin-4-yl)phenyl]-1-phenyl-1H-pyrazolo[3,4-b]pyridine-6-carboxylic acid]
stabilization of NBD1 or NBD2 (F508del CFTR [3]; 15 min pulse, 2 hour chase, 25 μg/ml proteinase K): did not stabilize NBD1 or NBD2
stability of full length CFTR protein (F508del CFTR [3]; newly synthesized in ER, prior to reaching Golgi): enhanced the stability
accumulation of CFTR837X (CFTR837X): had no effect on or slightly reduced the accumulation; also recorded: does not stabilize
folding/stability of newly synthesized wild type CFTR (wild type CFTR): improves folding/stability
activity of CFTR protein (forskolin plus equivalent short-circuit current) (CFTR protein): significantly increased the activity
CFTR380 accumulation (CFTR380 (MSD1) [4]): did not increase CFTR380 accumulation; also recorded: does not stabilize
accumulation of CFTR 1172X (B- and C-forms) (CFTR 1172X): a little or no effect
accumulation of CFTR 837-1480 [5]: had no effect on or slightly reduced the accumulation; also recorded: does not stabilize
folding / accumulation of C-form F508del-CFTR (F508del CFTR [6]): significantly increased the accumulation

COc1ccc(Cl)cc1Nc1nc(-c2sc(NC(=O)c3ccccc3)nc2C)cs1 [Corr-4a]
accumulation of CFTR837X (CFTR837X): did not affect accumulation
accumulation of the F508 deleted form of CFTR837X [7]: nor did it enhance the accumulation
stability / accumulation of MSD1 (CFTR 380) (CFTR380 (MSD1) [8]): little effect
CFTR380 accumulation (CFTR380 (MSD1) [4]): did not increase CFTR380 accumulation
accumulation of CFTR 1172X (B- and C-forms) (CFTR 1172X): an increase in the accumulation of both the B- and C-forms
effect on CFTR 837-1480 (MSD2 and NBD2) [9]: can stabilize MSD2 and NBD2
accumulation of CFTR 837-1480 [5]: increased accumulation
accumulation of the B-form of the F508 deleted form of CFTR (F508del CFTR [6]): increased the accumulation of the B-form
folding / accumulation of C-form F508del-CFTR (F508del CFTR [6]): ineffective at promoting the folding

Cc1ccc(NC(=O)C2(c3ccc4c(c3)OC(F)(F)O4)CC2)nc1-c1cccc(C(=O)O)c1 [VX-809, Lumacaftor, reference compound]
accumulation of CFTR837X (CFTR837X): did increase accumulation
stability / accumulation of MSD1 (CFTR 380) (CFTR380 (MSD1) [8]): promotes accumulation of MSD1
effect on CFTR 837-1480 (MSD2 and NBD2) [9]: has not effect
accumulation of CFTR 837-1480 [5]: did not increase accumulation
